This is an account of results in ChEMBL document CHEMBL1641367, “Antioxidant, anti-inflammatory and anti-hyperglycaemic activities of heterocyclic homoprostanoid derivatives” (2011).

The source made the active and inactive calls. The rule behind the calls is not given here.

Test [1] deals with Serum. The experiment in a line: Antiinflammatory activity in bovine serum assessed as denaturation of albumin at 1 mM after 10 mins by spectrophotometry. The format is functional. Conditions: Bos taurus.
In test [2] the test system is Rattus norvegicus. In words: Antiinflammatory activity in rat assessed as inhibition of carrageenan-induced hind paw edema at 100 mg/kg, po measured after 3 hrs of carrageenan challenge. The format is functional. (In the carrageenan paw model, swelling and tenderness develop within hours.)
Test [3] deals with Dipeptidyl peptidase 4 (Homo sapiens) (UniProt P27487). The experiment in a line: Inhibition of DPP4 at 500 ug/ml after 30 mins by spectrophotometry.
Dipeptidyl peptidase 4 (Homo sapiens), sequence (P27487 whole entry, looked up): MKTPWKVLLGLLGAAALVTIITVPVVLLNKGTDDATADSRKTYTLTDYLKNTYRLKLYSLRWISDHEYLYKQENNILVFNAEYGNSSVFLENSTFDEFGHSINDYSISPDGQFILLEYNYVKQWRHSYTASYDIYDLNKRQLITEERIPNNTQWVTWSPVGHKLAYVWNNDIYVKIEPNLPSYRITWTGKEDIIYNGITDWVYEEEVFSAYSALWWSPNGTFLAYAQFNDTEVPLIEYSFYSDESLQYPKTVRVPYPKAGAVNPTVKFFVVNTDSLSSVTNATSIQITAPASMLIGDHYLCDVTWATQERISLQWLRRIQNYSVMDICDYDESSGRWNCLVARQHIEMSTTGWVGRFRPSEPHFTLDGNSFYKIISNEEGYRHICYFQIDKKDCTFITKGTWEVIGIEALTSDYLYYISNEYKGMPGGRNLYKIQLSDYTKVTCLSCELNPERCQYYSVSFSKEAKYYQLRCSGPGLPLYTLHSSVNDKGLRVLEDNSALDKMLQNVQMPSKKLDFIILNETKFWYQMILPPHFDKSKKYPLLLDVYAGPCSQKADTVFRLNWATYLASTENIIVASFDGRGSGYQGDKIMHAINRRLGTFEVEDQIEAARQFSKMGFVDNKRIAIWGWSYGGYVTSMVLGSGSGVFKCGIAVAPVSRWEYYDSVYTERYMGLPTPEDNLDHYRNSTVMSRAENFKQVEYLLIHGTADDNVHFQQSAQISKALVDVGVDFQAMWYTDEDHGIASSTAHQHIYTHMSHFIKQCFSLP
Test [4] deals with Rattus norvegicus. In words: Antiinflammatory activity in rat assessed as inhibition of complete Freund's adjuvant-induced paw swelling at 100 mg/kg, po administered on day 21 post induction of inflammation measured on day 35. Format: functional.
Test [5] deals with Mus musculus. The experiment in a line: Antihyperglycemic activity in mouse assessed as decrease in blood glucose AUC level at 100 mg/kg, po administered before glucose challenge measured after 120 mins post glucose infusion. The format is functional, organism-based. Details: dose 100 mg/kg.
Test [6] concerns Mus musculus. In words: Antihyperglycemic activity in mouse assessed as decrease in blood glucose AUC level at 100 mg/kg, ip administered before glucose challenge measured after 120 mins post glucose infusion. Format: functional. Conditions: 2 h, route intraperitoneal.
For test [7], the system named is Serum. In words: Antiinflammatory activity in bovine serum assessed as denaturation of albumin at 0.25 mM after 10 mins by spectrophotometry. The format is functional. Conditions: Bos taurus.
Test [8] concerns Serum. The experiment in a line: Antiinflammatory activity in bovine serum assessed as denaturation of albumin at 5 mM after 10 mins by spectrophotometry. The format is functional. Conditions: Bos taurus.
Test [9] has as its system Serum. The experiment in a line: Antiinflammatory activity in bovine serum assessed as denaturation of albumin at 0.01 mM after 10 mins by spectrophotometry. Format: functional. Conditions: Bos taurus.
The subject of test [10] is Rattus norvegicus. The experiment in a line: Antiinflammatory activity in rat assessed as inhibition of complete Freund's adjuvant-induced paw swelling at 5 mg/kg, po administered on day 21 post induction of inflammation measured on day 35. Format: functional.

Take `CCCCCCCCC1=NC(=S)N=C1CCCCCCCC(=O)O`: in the test on Serum [1], the inhibition (as a rule, the drop in the measured response relative to a control, in per cent) at 1000 µM worked out at 78.3%. In the test on Rattus norvegicus [2], the inhibition in vivo (as a rule, the change of the read-out against control, counted positive when it falls) at 100 mg/kg was -7.17%.

In the case of `CCCCCCCCc1nc2ccc(Cl)cc2nc1CCCCCCCC(=O)O`, the inhibition at 1000 µM with Serum [1] was determined as 57.1%. The inhibition in vivo at 100 mg/kg in the test with Rattus norvegicus [2] is 26.7%; with Rattus norvegicus [4] it was 44.2%; in the test with Mus musculus [6], 36.7%. Besides, the inhibition in [3] is 45.5%. In addition, in the test on Mus musculus [5], the inhibition entry was “inactive”.

For the molecule `CCCCCCCCC1=NC(=O)N=C1CCCCCCCC(=O)NN`, the inhibition at 1000 µM in the test with Serum [1] was 31.4%.

Turning to `CCCCCCCCc1nc2ccccc2nc1CCCCCCCC(=O)O`, in the test with Serum [1], the inhibition at 1000 µM was 75.7%. The inhibition in vivo at 100 mg/kg in the test with Rattus norvegicus [2] amounted to 34.4%. Moreover, in [3], the inhibition turned out to be 73.6%.

Regarding `CCCCCCCCC1=NC(=O)N=C1CCCCCCCC(=O)NN1C(=O)CSC1c1ccc(Cl)cc1` (stereo unspecified), in the test with Rattus norvegicus [2], the inhibition in vivo at 100 mg/kg amounted to 0%.

As for `CCCCCCCCC1=NC(=O)CC(=O)N=C1CCCCCCCC(=O)O`, in the test with Serum [7], the inhibition at 250 µM turned out to be 37%. In addition, in the test with Rattus norvegicus [2], the inhibition in vivo at 100 mg/kg stood at 1.74%. In addition, in test [3], the inhibition was determined as 12.3%.

For `CCCCCCCCc1nonc1CCCCCCCC(=O)O`, in the test with Serum [8], the inhibition at 5000 µM was determined as 25.4%. For the same molecule, the inhibition in [3] amounted to 2.2%.

Regarding `CCCCCCCCc1nc2ccc([N+](=O)[O-])cc2nc1CCCCCCCC(=O)O`, the inhibition at 1000 µM in the test with Serum [1] was 36.9%. Besides, the inhibition in vivo at 100 mg/kg in the test on Rattus norvegicus [2] came to 39.6%; in the test with Rattus norvegicus [4], 53.3%; with Mus musculus [6], 45.1%. Besides, the inhibition in [3] amounted to 64%. In the test on Mus musculus [5], the inhibition entry was “inactive”.

With `CCCCCCC(CC1OC(C)(C)OC1CCCCCCCC(=O)OC)OC(C)=O` (stereo unspecified), in the test with Serum [8], the inhibition at 5000 µM stood at 48.5%.

As for `CCCCCCCCc1nc2ccc(C)cc2nc1CCCCCCCC(=O)O`, in the test on Serum [1], the inhibition at 1000 µM is 37.4%. For the same molecule, the inhibition in vivo at 100 mg/kg in the test on Rattus norvegicus [2] is 12.5%. Further, in test [3], the inhibition was 88.1%.

`CCCCCCCCC1=NC(=S)N=C1CCCCCCCC(=O)OCCO[N+](=O)[O-]`: the inhibition at 10 µM in the test with Serum [9] was found to be 38.1%. Also, the inhibition in vivo at 100 mg/kg in the test on Rattus norvegicus [2] is -22.4%. The inhibition in [3] is 23.3%.

Regarding `CCCCCCCCC1=NC(=S)N=C1CCCCCCCC(=O)NN1C(=O)CSC1c1ccc(Cl)cc1` (stereo unspecified), in the test on Rattus norvegicus [2], the inhibition in vivo at 100 mg/kg was -21.7%.

For the molecule `CCCCCCCCc1nc(=S)[nH]nc1CCCCCCCC(=O)O`, the inhibition at 250 µM in the test on Serum [7] worked out at 14%. Further, the inhibition in vivo at 100 mg/kg with Rattus norvegicus [2] was -3.82%. The inhibition in test [3] amounted to 58.3%.

For the molecule `CCCCCCCCc1nc2ccccc2nc1CCCCCCCC(=O)NN`, the inhibition at 1000 µM with Serum [1] is 3.72%.

With `CCCCCCCCC1OC(C)(C)OC1CCCCCCCC(=O)OCC` (stereo unspecified), the inhibition at 5000 µM in the test with Serum [8] was 46.4%.

Consider `CCCCCCCCC1=NC(=O)N=C1CCCCCCCC(=O)O`, for which the inhibition at 1000 µM with Serum [1] came to 76.7%. The inhibition in vivo at 100 mg/kg in the test on Rattus norvegicus [2] was -12.9%.

Consider `O=C(O)Cc1ccccc1Nc1c(Cl)cccc1Cl` [DICLOFENAC], for which the inhibition at 5000 µM with Serum [8] was found to be 56.3%. The inhibition in vivo at 100 mg/kg in the test with Rattus norvegicus [2] was found to be 38.2%. For the same molecule, the inhibition in vivo at 5 mg/kg with Rattus norvegicus [10] was found to be 35.3%.

As to `CCCCCCCCC1=NC(=O)N=C1CCCCCCCC(=O)OCCO[N+](=O)[O-]`, the inhibition at 1000 µM in the test with Serum [1] is 25.1%. The inhibition in vivo at 100 mg/kg in the test on Rattus norvegicus [2] is -22.8%. Also, the inhibition in [3] was -6.22%.

With `CCCCCCCCC1=NC(=S)N=C1CCCCCCCC(=O)NN`, in the test on Serum [9], the inhibition at 10 µM came to 37.2%.
